ChEMBL document CHEMBL3525960, “Role of catechol-O-methyltransferase in the disposition of luteolin in rats” (Drug Metab Dispos, 2011)

Columns and labels:
[1] = AUC (0 to t) in Sprague-Dawley rat treated with luteolin at 6.5 mg/kg, iv; assay type: ADME, organism-based; set-up: dose 6.5 mg/kg, route intravenous; settings: plasma
[2] = AUC (0 to infinity) in Sprague-Dawley rat treated with luteolin at 6.5 mg/kg, iv; assay type: ADME, organism-based; set-up: time infinity, dose 6.5 mg/kg, route intravenous; settings: plasma
[3] = Mean residence time (0 to t) in Sprague-Dawley rat treated with luteolin at 6.5 mg/kg, iv; assay type: ADME, organism-based; set-up: dose 6.5 mg/kg, route intravenous; settings: in vivo
[4] = Mean residence time (0 to infinity) in Sprague-Dawley rat treated with luteolin at 6.5 mg/kg, iv; assay type: ADME, organism-based; set-up: dose 6.5 mg/kg, route intravenous; settings: in vivo
[5] = Half life in Sprague-Dawley rat treated with luteolin at 6.5 mg/kg, iv; assay type: ADME, organism-based; set-up: dose 6.5 mg/kg, route intravenous; settings: in vivo
Rattus norvegicus = assay: Clearance in Sprague-Dawley rat treated with luteolin at 6.5 mg/kg, iv; assay type: ADME, organism-based; set-up: dose 6.5 mg/kg, route intravenous; settings: in vivo
[6] = Volume of distribution in Sprague-Dawley rat treated with luteolin at 6.5 mg/kg, iv; assay type: ADME, organism-based; set-up: dose 6.5 mg/kg, route intravenous; settings: in vivo
[7] = Cmax in Sprague-Dawley rat treated with luteolin at 6.5 mg/kg, iv; assay type: ADME, organism-based; set-up: dose 6.5 mg/kg, route intravenous; settings: in vivo
[8] = Drug excretion in Sprague-Dawley rat urine treated with luteolin at 6.5 mg/kg, iv after 24 hrs; assay type: ADME, organism-based; set-up: dose 6.5 mg/kg, route intravenous; settings: read-out: Drug excretion
[9] = Drug excretion in Sprague-Dawley rat urine treated with luteolin at 6.5 mg/kg, iv after 24 hrs co-treated with COMT inhibitor entacapone; assay type: ADME, organism-based; set-up: dose 6.5 mg/kg, route intravenous; settings: read-out: Drug excretion
[10] = Drug recovery in Sprague-Dawley rat urine assessed as retention time treated with luteolin at 6.5 mg/kg, iv by reverse-phase HPLC method; assay type: ADME, organism-based; set-up: dose 6.5 mg/kg, route intravenous; settings: in vivo
Liver [11] = assay: Drug metabolism in Sprague-Dawley rat liver homogenate treated with luteolin at 20 uM after 20 to 60 mins; assay type: ADME, tissue-based; settings: tissue homogenate
Kidney [12] = assay: Drug metabolism in Sprague-Dawley rat kidney homogenate treated with luteolin at 20 uM after 20 to 60 mins; assay type: ADME, tissue-based; settings: tissue homogenate
Lung [13] = assay: Drug metabolism in Sprague-Dawley rat lung homogenate treated with luteolin at 20 uM after 20 to 60 mins; assay type: ADME, tissue-based; settings: tissue homogenate
Small intestine [14] = assay: Drug metabolism in Sprague-Dawley rat small intestine homogenate treated with luteolin at 20 uM after 20 to 60 mins; assay type: ADME, tissue-based; settings: tissue homogenate
[15] = Drug metabolism in Sprague-Dawley rat erythrocytes homogenate treated with luteolin at 20 uM after 20 to 60 mins; assay type: ADME, cell-based; settings: erythrocyte
Liver [16] = assay: Drug metabolism in Sprague-Dawley rat liver homogenate treated with luteolin at 20 uM after 20 to 60 mins in presence of COMT inhibitor entacapone; assay type: ADME, tissue-based; settings: tissue homogenate
Kidney [17] = assay: Drug metabolism in Sprague-Dawley rat kidney homogenate treated with luteolin at 20 uM after 20 to 60 mins in presence of COMT inhibitor entacapone; assay type: ADME, tissue-based; settings: tissue homogenate
Lung [18] = assay: Drug metabolism in Sprague-Dawley rat lung homogenate treated with luteolin at 20 uM after 20 to 60 mins in presence of COMT inhibitor entacapone; assay type: ADME, tissue-based; settings: tissue homogenate
Small intestine [19] = assay: Drug metabolism in Sprague-Dawley rat small intestine homogenate treated with luteolin at 20 uM after 20 to 60 mins in presence of COMT inhibitor entacapone; assay type: ADME, tissue-based; settings: tissue homogenate
[20] = Drug metabolism in Sprague-Dawley rat erythrocytes homogenate treated with luteolin at 20 uM after 20 to 60 mins in presence of COMT inhibitor entacapone; assay type: ADME, cell-based; settings: erythrocyte
Liver microsome = assay: Stability in Sprague-Dawley rat liver microsomes at 10 uM after 10 to 30 mins by HPLC analysis; assay type: ADME

## COc1cc(-c2cc(=O)c3c(O)cc(O)cc3o2)ccc1O [CHRYSOERIOL]
[1]
  AUC(0-t): 2090 ng·h/mL
[2]
  AUC(0-inf): 2280 ng·h/mL
[3]
  MRT last: 1.24 h
[4]
  MRT inf: 1.76 h
[5]
  half-life: 1.57 h
Rattus norvegicus
  clearance: 49 mL/min/kg
[6]
  Vd: 6.34 L/kg
[7]
  Cmax: 2060 ng/mL
[8]
  dose excreted at 24 h: 1.92%
[9]
  dose excreted at 24 h: 0.451%
[10]
  Retention_time: 29.35 min
Liver [11]
  Drug metabolism: metabolite_detected
Kidney [12]
  Drug metabolism: metabolite_detected
Lung [13]
  Drug metabolism: metabolite_detected
Small intestine [14]
  Drug metabolism: metabolite_detected
[15]
  Drug metabolism: metabolite_detected
Liver [16]
  Drug metabolism: metabolite_not_detected
Kidney [17]
  Drug metabolism: metabolite_not_detected
Lung [18]
  Drug metabolism: metabolite_not_detected
Small intestine [19]
  Drug metabolism: metabolite_not_detected
[20]
  Drug metabolism: metabolite_not_detected
Liver microsome
  Stability: Unstable
